The values that follow come from article PMC11514582, “Leveraging the Aggregated Protein Dye YAT2150 for Malaria Chemotherapy” (Pharmaceutics, 2024).

For series [1], the system named is MCF7 human breast adenocarcinoma. As to conditions: cited from earlier work.
The test system of the next series is HUVEC. As to conditions: cited from earlier work.
Series [2] is described as follows: Bidirectional permeability in Caco-2 cell monolayer. Conditions: human.
The conditions of series [3]: cited from earlier work.
The test system of series [4] is P. berghei ookinete development. The experiment in a line: Ex vivo gametocyte-to-ookinete transition inhibition (ookinete maturation) assay. Conditions: up to a concentration of 2 µM. It is filed as cell-based, Plasmodium berghei. The procedure:
Eight days before ookinete production, 100 µL of a red blood cell (RBC) pellet containing the Plasmodium berghei circumsporozoite protein and thrombospondin-related adhesive protein (TRAP)-related protein (CTRP)-green fluorescent protein (GFP) strain (CTRP-GFP, which expresses GFP when reaching ookinete stage, kindly provided by Inga Siden-Kiamos) in cryopreservation solution (RBC pellet:RPMI:30% glycerol in water, 1:1:2) was administered intraperitoneally (i.p.) to a BALB/c mouse (Charles River Laboratories, Wilmington, MA, USA). […] The effect of drugs on gametocyte-to-ookinete conversion was assessed in three independent replicas by plating 120 µL of each culture treated with serial dilutions of the compounds in 96-well plates and incubated for 24 h at 21 °C with orbital shaking at 50 rpm (modified from). Finally, samples diluted 1:100 in PBS were analyzed in an LSRFortessa flow cytometer (BD Biosciences, Franklin Lakes, NJ, USA) set up with the 4 lasers, 20 parameters standard configuration. The GFP positive cell population was counted (λexcitation: 488 nm; λemission: 525/40 nm) using BD FACSDiva software 6.1.3 (BD Biosciences) for data collection and Flowing Software 2.5.1 (Turku Center for Biotechnology, Turku, Finland) for analysis.

In series [5] the test system is P. falciparum asexual blood stages. As to conditions: cited from earlier work.
The next series has as its target T1, CYP1A2 (Homo sapiens, UniProt P05177).
T1 sequence (P05177 1-516): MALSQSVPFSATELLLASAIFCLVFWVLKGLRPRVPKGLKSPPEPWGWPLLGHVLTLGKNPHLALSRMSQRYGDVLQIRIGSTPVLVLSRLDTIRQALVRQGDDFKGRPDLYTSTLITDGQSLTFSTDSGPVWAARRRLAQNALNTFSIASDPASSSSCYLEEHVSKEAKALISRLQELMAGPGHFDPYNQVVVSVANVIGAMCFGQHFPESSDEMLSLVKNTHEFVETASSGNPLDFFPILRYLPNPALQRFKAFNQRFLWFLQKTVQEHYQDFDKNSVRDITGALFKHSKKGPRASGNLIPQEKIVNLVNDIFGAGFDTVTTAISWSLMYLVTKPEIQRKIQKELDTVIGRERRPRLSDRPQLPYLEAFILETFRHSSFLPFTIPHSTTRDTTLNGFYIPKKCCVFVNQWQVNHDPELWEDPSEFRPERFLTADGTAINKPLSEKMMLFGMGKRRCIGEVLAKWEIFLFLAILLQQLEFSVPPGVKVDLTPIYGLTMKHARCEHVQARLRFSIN
Kind of series: in vitro.

Series [6] in a line: Human plasma protein binding (Rapid Equilibrium Dialysis). Format: in vitro ADME. Conditions: pH 7.2, RED, 4 h at 37 °C. The procedure:
The assay was carried out by Rapid Equilibrium Dialysis (RED). The compounds were dissolved at 5 μM in human plasma and added to the corresponding insert of the RED device (Thermo Fisher Scientific, Inc., Waltham, MA, USA), and dialysis was performed for 4 h at 37 °C in […], 25 mM tris-HCl, pH 7.2 (Tris BupH^TM, Thermo Fisher Scientific, Inc.). Then, 50-µL aliquots from each chamber were transferred to empty vials, to which 50 µL of dialysis buffer was added. As control, 50 µL of plasma was mixed with 50 µL of buffer. Three hundred µL of acetonitrile was added to all the samples, which were analyzed by ultra-performance liquid chromatography with tandem mass spectrometry as previously described.
On the technique in general: In equilibrium dialysis free small molecules cross a membrane that holds back macromolecules.

For series [7] the following is noted: human, hepatocytes.
The next series concerns the target CYP2D6 (Homo sapiens, UniProt P10635). The experiment in a line: Cytochrome inhibition assay CYP2D6.
A further series concerns the target CYP2C9 (Homo sapiens, UniProt P11712). Kind of series: in vitro.
The subject of series [8] is P. falciparum asexual blood stages. Kind of series: microbe, parasite or virus in culture. Conditions: Plasmodium falciparum.
Protocol: The asexual blood stages of P. falciparum parasites of the 3D7 strain (Malaria Research and Reference Reagent Resource Center, Manassas, VA, USA) were cultured in group B human RBCs at 3% hematocrit, which was kept throughout the experiments, and incubated in RPMIc. Parasites were maintained at 37 °C under an atmosphere of 5% O2, 5% CO2, and 90% N2. […] The parasites were then cultured under standard conditions for 48 h, allowing for a complete replication cycle. After the incubation period, 3 µL of culture from each well was mixed with 197 µL of PBS containing 0.1 µM Syto 11 (Thermo Fisher Scientific, Inc.) to obtain a final concentration of 1 × 10^6 to 10 × 10^6 cells/mL. Parasitemia levels were measured using an LSRFortessa flow cytometer equipped with a standard configuration of four lasers and 20 parameters. Single-cell populations were identified on a forward-side scatter plot. […] The inhibition data were then transformed using sigmoidal fitting to determine IC50.
For stage arrest assays, P. falciparum cultures were tightly synchronized in schizont stages by repeated treatment with 70% Percoll (GE Healthcare, Chicago, IL, USA) [26, 27]. […] Pictures were taken with a Nikon Eclipse 50i microscope equipped with a DS-Fi1 camera (Nikon Corporation, Tokyo, Japan).
Series [9] has as its system protein aggregation in P. falciparum cultures. The experiment in a line: ThT protein aggregation assay in P. falciparum cultures. Format: cell-based, Plasmodium falciparum. As to conditions: treated for 4 h at the IC50.
Protocol: After this incubation, 9 mL of culture was removed and subjected to a second Percoll treatment to pellet the parasitized red blood cells, which were resuspended in 50 μL of lysis buffer, consisting of 4.5 mg/mL NaCl in H2O supplemented with 1× cOmplete^TM protease inhibitor cocktail (Roche, Basel, Switzerland), and treated as described elsewhere [13]. […] Only those samples with parasitemias between 30 and 70% relative to the control were considered for ThT analysis.
In series [10] the test system is liver stages of P. berghei in Huh7. Conditions: read-out: IC50 against liver stages of P. berghei; cited from earlier work.
Series [11] relates to P. falciparum gametocytes. As to conditions: cited from earlier work.
[12] abbreviates: 3D7, read-out: in vitro IC50 as determined in our experimental setting.

Converted amounts (≈) assume the structure as drawn. Where two headings read alike, the source gives them in different places.

CYP2C9, sequence (P11712 whole entry): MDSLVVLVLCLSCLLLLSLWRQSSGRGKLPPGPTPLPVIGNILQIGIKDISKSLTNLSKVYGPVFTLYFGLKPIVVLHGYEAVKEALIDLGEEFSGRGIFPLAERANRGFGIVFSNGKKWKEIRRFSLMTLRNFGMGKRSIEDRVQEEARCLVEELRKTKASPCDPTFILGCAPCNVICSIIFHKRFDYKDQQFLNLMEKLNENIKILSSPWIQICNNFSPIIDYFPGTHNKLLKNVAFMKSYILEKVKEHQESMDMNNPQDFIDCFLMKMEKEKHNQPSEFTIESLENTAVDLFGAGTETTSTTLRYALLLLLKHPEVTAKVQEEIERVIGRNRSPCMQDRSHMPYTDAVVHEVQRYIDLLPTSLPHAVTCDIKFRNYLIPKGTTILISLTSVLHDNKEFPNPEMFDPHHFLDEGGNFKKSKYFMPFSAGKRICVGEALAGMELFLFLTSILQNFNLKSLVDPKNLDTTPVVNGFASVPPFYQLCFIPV
CYP2D6, sequence (P10635 whole entry): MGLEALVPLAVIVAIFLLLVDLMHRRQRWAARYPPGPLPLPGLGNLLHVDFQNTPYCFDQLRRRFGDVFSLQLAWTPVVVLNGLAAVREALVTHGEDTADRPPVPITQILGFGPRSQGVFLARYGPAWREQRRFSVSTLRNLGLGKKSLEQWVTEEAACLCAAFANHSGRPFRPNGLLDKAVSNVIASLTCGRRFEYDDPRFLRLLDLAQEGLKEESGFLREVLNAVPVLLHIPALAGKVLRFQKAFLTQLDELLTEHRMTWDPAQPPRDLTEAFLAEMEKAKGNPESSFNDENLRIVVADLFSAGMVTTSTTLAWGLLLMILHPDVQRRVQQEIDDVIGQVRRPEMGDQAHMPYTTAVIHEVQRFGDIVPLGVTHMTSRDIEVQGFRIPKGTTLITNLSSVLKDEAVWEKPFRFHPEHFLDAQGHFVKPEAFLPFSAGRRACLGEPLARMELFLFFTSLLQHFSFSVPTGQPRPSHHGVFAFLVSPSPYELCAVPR

On to `N.N.[Cl][Pt][Cl]` [Cisplatin], for which the CC50 in series [1] was 16.7 µM; with HUVEC it was 2.35 ± 0.04 µM.
The Papp is the rate of passage across a membrane or cell layer, normalised by area and donor concentration. Broadly, the Papp B→A is the apparent permeability from the basolateral to the apical side of a cell layer. For orientation: efflux ratio means the permeability from basolateral to apical divided by that in the opposite direction, in the common usage. As to `COc1cc2c(c(OC)c1OC)-c1ccc(OC)c(=O)cc1[C@@H](NC(C)=O)CC2` [Colchicine], in series [2] (Caco-2), the Papp worked out at 0.26 ± 0.02 ×10⁻⁶ cm/s and the Papp B→A amounted to 8.98 ± 0.47 ×10⁻⁶ cm/s. Moreover, the efflux ratio in series [2] (Caco-2, Transport through Caco-2 Efflux ratio, reference compounds, tested in parallel) was found to be 35.3 ± 3. For the same compound, the efflux ratio in series [2] (Caco-2, efflux ratios of reference compounds, as quoted in text from Supplementary Table S2) was found to be 33. For the same compound, in series [3] (ref 24 (supplement list)), the “Papp AB reported” value was 1.3 ×10⁻⁶ cm/s and the “Papp BA reported” value is 5.4 ×10⁻⁶ cm/s.
On to `COc1cc2c(cc1OC)C(=O)C(CC1CCN(CCCNc3c4c(nc5cc(Cl)ccc35)CCCC4)CC1)C2` (stereo not shown) [DONE3TCl], for which, in series [4], the “effect on ookinete development” value was “much less significant effect”. For the same compound, the IC50 in series [5] (read-out: IC50 in in vitro P. falciparum asexual blood stage cultures) was around 0.08 µM.
In the case of `C[C@]12CC[C@@H]3c4ccc(OS(=O)(=O)O)cc4CC[C@H]3[C@@H]1CCC2=O` [Estrone-3-sulfate], the “Transport through Caco-2 AB (Papp), reference compounds” value stood at 0.44 ± 0.03 ×10⁻⁶ cm/s and the “Transport through Caco-2 Efflux ratio, reference compounds” value came out at 26.5±3.5. Further, for the setting “human”, the “Transport through Caco-2 BA (Papp), reference compounds” value came out at 11 ± 0.94 ×10⁻⁶ cm/s. Besides, in [3] (not told), the “Papp AB reported” value was 2.7 ×10⁻⁶ cm/s and the “Papp BA reported” value is 17.5 ×10⁻⁶ cm/s.
In general, inhibition refers to how much of the control response was suppressed. For `Cc1nc2c([nH]1)c(=O)n(C)c(=O)n2Cc1ccco1` [Furafylline], the inhibition at 2 µM at CYP1A2 worked out at 61%.
For orientation: fraction unbound means the share of the substance not bound to proteins or other matrix. `O=C1NC(=O)C(c2ccccc2)(c2ccccc2)N1` [Phenytoin]: the fraction unbound at 4 h, 5 μM in series [6] was 0.167.
Usually solubility stands for the concentration that dissolves in the medium under given conditions. Consider `COc1cc2nc(N3CCN(C(=O)c4ccco4)CC3)nc(N)c2cc1OC` [Prazosin], for which the “Hepatocyte stability (remaining after 2 h), reference compounds” value in [7] is on record as 70.2%. In addition, in the series “physchem”, the solubility is 63.8 µM (≈ 24.5 µg/mL).
On to `CC(=O)[C@H]1CC[C@H]2[C@@H]3CCC4=CC(=O)CC[C@]4(C)[C@H]3CC[C@]12C` [Progesterone], for which, in “Solubility in PBS”, the solubility came out at 8 µM (≈ 2.52 µg/mL).
For `C=C[C@H]1C[N@@]2CC[C@H]1C[C@@H]2[C@@H](O)c1ccnc2ccc(OC)cc12` [Quinidine], the inhibition at 0.0073 µM at CYP2D6 worked out at 69%.
On to `Nc1ccc(S(=O)(=O)Nc2ccnn2-c2ccccc2)cc1` [Sulfaphenazole], for which the inhibition at 0.37 µM against CYP2C9 was determined as 43%.
For orientation: half-life means the time in which the quantity being followed falls by half. As a reminder, the microsomal CLint is the capacity of the preparation to metabolise the compound, expressed as a volume cleared per time. On to `C[C@]12CC[C@H]3[C@@H](CCC4=CC(=O)CC[C@@]43C)[C@@H]1CC[C@@H]2O` [Testosterone], for which, in “Microsomal stability” (human, microsomes), the half-life came to 15.3 min and the microsomal CLint was 55.6 µL/min/mg. Also, in the series “Microsomal stability” (tested in parallel), the “Microsomal stability (remaining after 1 h), reference compound” value is on record as 6.5%.
For `C[C@@H]1CC[C@H]2[C@@H](C)C(=O)O[C@@H]3O[C@@]4(C)CC[C@@H]1[C@]32OO4` [artemisinin], in [8] (setting [12]), the IC50 amounted to 0.0108 µM. Also, the “effect on protein aggregation (ThT fluorescence)” value (shortened to “effect on protein aggregation”) in series [9] is “did not have an observable effect”.
On to `O=C1C(O)=C([C@H]2CC[C@H](c3ccc(Cl)cc3)CC2)C(=O)c2ccccc21` [atovaquone], for which the IC50 in [8] (setting [12]) came to 0.001 µM. Also, the “effect on protein aggregation” value in series [9] was “did not have an observable effect”.
Turning to `CCN(CC)CCCC(C)Nc1ccnc2cc(Cl)ccc12` (stereo not shown) [chloroquine], the IC50 is 0.007 µM in series [8] (read-out: in vitro IC50 as determined in our experimental setting) and 0.0297 ± 0.006 µM in [5] (Table S2, ref 10 (supplement list), read-out: IC50 P. falciparum (3D7) blood stages, reference compound). Also, the “effect on protein aggregation” value in series [9] is given as “reduce protein aggregation”.
Take `COc1cc(NC(C)CCCN)c2ncccc2c1` (stereo not shown) [primaquine]: the IC50 is 3 µM in series [8] (setting [12]); around 10 µM in series [10]; 18.9 ± 2 µM in series [11] (Table S2, ref 10 (supplement list), read-out: IC50 P. falciparum early/stage V gametocytes, reference compound); around 20 µM in series [11] (stage IV-V gametocytes, read-out: IC50 for P. falciparum gametocytes (primaquine)). Besides, in [9], the “effect on protein aggregation” value is “reduce protein aggregation”.
